Source: patent US12637717B2, “Method for treating and predicting prognosis of gastric cancer patient by calculating RNA expression with logistic regression” (National Yang Ming Chiao Tung University, priority 2022, dated 2026)

Assays:
Type in all cases: cell-based, human
[1] = test system: Hs746T; test: cell viability of diffuse-type GC cell line Hs746T after inhibitor treatment; conditions: 2.5 μM, 5 μM and 10 μM, triplicate
Excerpt: (§1) The potential tumor antigens (pTAs) expression and signaling pathways were validated in vitro. To validate the association of pTAs with the EMT-like subtype of gastric cancer, the pTAs expression at intestinal-type and diffuse-type GC cell lines were investigated by western blotting. The human GC cell line AGS was obtained from American Type Culture Collection (ATCC) CRL-1739™, and Hs746T was obtained from ATCC HTB-135™, and SNU-1 was obtained from ATCC CRL5971™. Hs746T and SNU-1 were diffuse-type GC cell lines; AGS was an intestinal type GC cell line.
(§2) Therefore, two inhibitors (SB431542 and GDC-0449 (Vismodegib)) were used to validate whether the TGF-β and hedgehog signaling pathways were activated in diffuse-type GC cell lines, respectively. The experiments were performed in triplicate.

[2] = test system: AGS; test: cell viability of intestinal type GC cell line AGS after inhibitor treatment; conditions: for cell viability (inhibiting effect): 2.5 μM, 5 μM and 10 μM, triplicate
Excerpt: as §1, §2

[3] = test system: SNU-1; test: cell viability of diffuse-type GC cell line SNU-1 after inhibitor treatment; conditions: 2.5 μM, 5 μM and 10 μM, triplicate
Excerpt: as §1, §2

Compound	cell viability [1]	cell viability (inhibiting effect) [2]	effect on proliferation ([2]; concentrations of 2.5 μM and 5 μM)	cell viability [3]
CS(=O)(=O)c1ccc(C(=O)Nc2ccc(Cl)c(-c3ccccn3)c2)c(Cl)c1 [GDC-0449, Vismodegib]	significantly decreased	did not have significant effects of inhibiting	effects of promoting proliferation	significantly decreased
NC(=O)c1ccc(-c2nc(-c3ccc4c(c3)OCO4)c(-c3ccccn3)[nH]2)cc1 [SB431542]	significantly decreased	did not have significant effects of inhibiting	–	significantly decreased
